Data taken from article PMC11838108, “Screening and evaluation of novel DPP-IV inhibitory peptides in goat milk based on molecular docking and molecular dynamics simulation” (Food Chemistry: X, 2025).
Like-named read-outs stand apart in the source and are kept apart here. Blank lines part the entries; values can stand above or below the substance they belong to. Where no end group is shown, it is not given here.

How the values were obtained:
DPP-IV [1] = conditions: cited from earlier work
DPP-IV [2] = biological target: T1, DPP-IV (Homo sapiens, UniProt P27487); experiment: DPP-IV inhibition by the peptides (Gly-Pro-pNA substrate); assay type: biochemical; conditions: Gly-Pro-pNA 0.2 mM, DPP-IV 0.0025 U/mL, 60 min; read-out: DPP-IV inhibitory activity IC50
T1 sequence (P27487 whole entry): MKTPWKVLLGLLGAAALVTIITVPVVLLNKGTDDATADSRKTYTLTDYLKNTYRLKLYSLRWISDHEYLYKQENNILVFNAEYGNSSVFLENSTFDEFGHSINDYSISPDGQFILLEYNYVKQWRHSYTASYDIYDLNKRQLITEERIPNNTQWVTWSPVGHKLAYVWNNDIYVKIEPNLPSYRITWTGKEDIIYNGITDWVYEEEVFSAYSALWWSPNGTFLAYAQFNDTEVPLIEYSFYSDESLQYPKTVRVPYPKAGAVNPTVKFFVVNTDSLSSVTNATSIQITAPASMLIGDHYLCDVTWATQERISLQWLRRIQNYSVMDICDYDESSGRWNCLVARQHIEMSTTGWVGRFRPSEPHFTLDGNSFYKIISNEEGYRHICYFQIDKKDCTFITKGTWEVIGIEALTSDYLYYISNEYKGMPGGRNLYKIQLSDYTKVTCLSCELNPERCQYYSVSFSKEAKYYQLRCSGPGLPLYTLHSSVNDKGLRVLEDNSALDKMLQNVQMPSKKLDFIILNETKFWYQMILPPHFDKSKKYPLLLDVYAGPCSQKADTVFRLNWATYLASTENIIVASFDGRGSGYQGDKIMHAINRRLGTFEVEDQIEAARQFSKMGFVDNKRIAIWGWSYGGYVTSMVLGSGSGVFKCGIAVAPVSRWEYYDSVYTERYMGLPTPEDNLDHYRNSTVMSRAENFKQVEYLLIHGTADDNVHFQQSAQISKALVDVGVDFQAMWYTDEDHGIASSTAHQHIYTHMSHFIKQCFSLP
Protocol: Peptides were prepared at various concentrations and transferred to a 96-well microplate containing Gly-Pro-pNA (0.2 mM). The microplates were then incubated for 5 min. Subsequently, DPP-IV (0.0025 U/mL) was added, followed by an additional incubation for 60 min. […] The peptides, Gly-Pro-pNA, and DPP-IV were then dissolved in Tris-HCl (0.1 M). Tris-HCl was used as the negative control with DPP-IV but without the peptides and as the blank control without the peptides or DPP-IV.

[3] = design: method as in Yin et al., 2022; conditions: ref Yin et al., 2022; cited from earlier work
[4] = Stability of peptides after in vitro simulated digestion (RP-HPLC); assay type: in vitro ADME; design: remaining at 2 min: dose or concentration left out as unconfirmed; conditions: for Oral-gastric digestion (stability of peptide): after oral and gastric phase; for Oral-gastric digestion (stability of peptide) / Oral-gastric-intestinal digestion (stability of peptide) / remaining at 2 min: RP-HPLC peak area; for Oral-gastric-intestinal digestion (stability of peptide): after oral, gastric and intestinal phase; for decrease of stability after intestinal digestion: relative to oral-gastric digestion; for remaining at 2 min: simulated salivary fluid (SSF) with salivary amylase, after oral phase, read-out: Oral digestion (stability of peptide)
Protocol: (§1) Based on the method described by Brodkorb et al. ([Brodkorb et al., 2019]), the following solutions were prepared: SSF, SGF, and SIF salt solutions, and salivary amylase, pepsin, and trypsin solutions.
Each peptide was dissolved at a concentration of 1 mg/mL, and 0.094 mL of SSF, 0.001 mL of CaCl2·2H2O (0.3 M), 0.025 mL of salivary amylase (75 U/mL), and 0.005 mL of H2O were sequentially added, for a total volume of 0.25 mL. The mixture was then incubated in a 37 °C incubator for 2 min.
Briefly, 0.25 mL of the oral digestion mixture was sequentially combined with 0.12 mL of SGF, 0.001 mL of CaCl2·2H2O (0.3 M), 0.048 mL of pepsin (2000 U/mL), 0.060 mL of SGF, 0.011 mL of H2O, and 0.010 mL of HCl (1 M), for a total volume of 0.5 mL. The mixture was then incubated in a 37 °C incubator for 2 h.
A 0.50-mL sample of the gastric digestion mixture was successively combined with 0.195 mL of SIF, 0.001 mL of CaCl2·2H2O (0.3 M), 0.125 mL of trypsin (100 U/mL), 0.100 mL of SIF, and 0.079 mL of H2O. The mixture was then incubated in a 37 °C incubator for 2 h at a pH of 7.0.
After oral, gastric, and intestinal digestion, the digestion mixture was filtered through a 0.22-μm sterile filter. The filtrate was stored at −20 °C for subsequent analysis.
The in vitro simulated digestion experiments of the peptides were conducted in accordance with the method described by Hao et al., with minor modifications ([Hao et al., 2020]). The stability of peptides post-digestion was assessed by RP-HPLC (CAP-CELL PAK C18 AQ S-5, 10 mm × 150 mm column, Shiseido, Tokyo, Japan) with a detection wavelength of 228 nm. The formula for determining the peptide stability was as follows: Stability of peptides%=Pa/Pb×100 where Pa represents the peak area of the digested sample, and Pb represents the peak area of the reference sample.

DPP-IV [5] = biological target: T1, DPP-IV; experiment: DPP-IV inhibitory activity of peptides after in vitro simulated digestion; assay type: biochemical; conditions: GL-6 at 130.68 μM, LY-5 at 179.52 μM; after oral-gastric-intestinal digestion
Protocol: The method outlined by Nongonierma et al. ([Nongonierma & FitzGerald, 2013]) was adapted for our study. Peptides were prepared at various concentrations and transferred to a 96-well microplate containing Gly-Pro-pNA (0.2 mM). The microplates were then incubated for 5 min. Subsequently, DPP-IV (0.0025 U/mL) was added, followed by an additional incubation for 60 min. The absorbance of the mixture was measured at 405 nm. The peptides, Gly-Pro-pNA, and DPP-IV were then dissolved in Tris-HCl (0.1 M). Tris-HCl was used as the negative control with DPP-IV but without the peptides and as the blank control without the peptides or DPP-IV. Sitagliptin was used as the positive control instead of the peptides. The formula for calculating the inhibitory activity was as follows: DPP−IVinhibitory activity%=Ac−As/Ac−Ab×100 where absorbance values for the control, sample, and blank groups were designated as Ac, As, and Ab, respectively.
as §1
Each peptide was dissolved at a concentration of 1 mg/mL, and 0.094 mL of SSF, 0.001 mL of CaCl2·2H2O (0.3 M), 0.025 mL of salivary amylase (75 U/mL), and 0.005 mL of H2O were sequentially added, for a total volume of 0.25 mL. […]

DPP-IV [6] = tested on: T2, DPP-IV; experiment: DPP-IV inhibitory activity in Caco-2 cells (Gly-Pro-AMC substrate); assay type: cell-based; conditions: peptide 2 mg/mL (GPFPLL 3.11 mM, LPYPY 3.07 mM), 24 h
T2 construct: endogenous in cells; host or cells: Caco-2 cells (Haixing Biological Technology Co., Ltd.)
Protocol: Caco-2 cells were seeded on a black 96-well plate at a density of 2 × 10^4 cells per well. Subsequently, the cells were treated with sample solutions at various concentrations and then further incubated for 24 h. After incubating, the peptide solutions and medium were removed from the wells, and 100 μL of the Gly-Pro-AMC substrate (50 μM) was added to each well and incubated for 10 min at 37 °C.

Caco-2 cells = experiment: Cytotoxicity assay (CCK-8); assay type: cell-based; conditions: 24 h, GL-6 0.195–3.11 mM, LY-5 0.193–3.07 mM
Protocol: A peptide cytotoxicity assay using Caco-2 cells was conducted based on the method outlined by Hao et al. with minor modifications ([Hao et al., 2020]). Initially, the cells were evenly seeded on a 96-well plate with 100 μL of 2 × 10^4 cells. After seeding, the plate was placed in a sterile and CO2-enriched incubator. After a 24-h incubation, the medium was removed, and the adherent cells were used for subsequent experiments. The peptides were dissolved in the basal medium (DMEM) and cells were treated with different concentrations of peptides. After a 24-h incubation period, 10 μL of CCK-8 was added to each well and incubated with the cells. The absorbance at 450 nm was recorded to determine cell viability.
The following formula was used to calculate cell viability, with cells cultured in the basal medium used as the control group for comparison: Cell viability%=Asample/Acontrol×100

[7] = biological target: angiotensin-converting enzyme (ACE); conditions: ref Chen, Yu, Wu, & He, 2022, read-out: ACE inhibitory IC50; cited from earlier work

Substance: PPGIPYW
mode of inhibition of DPP-IV (DPP-IV [1]; chickpea protein peptide, ref Zan et al., 2023): competitive inhibition

IC50 (DPP-IV [2]): 198 ± 14.9 µM
Substance: GPFPILN [GPFPILN]

Substance: IPYWTY
mode of inhibition of DPP-IV (DPP-IV [1]; pea protein peptide, ref Zhang, Zhu, et al., 2022): competitive inhibition

Substance: LPVGP
stability after intestinal digestion [3]: 80%

Oral-gastric digestion (stability of peptide) [4]: 97.60%
Oral-gastric-intestinal digestion (stability of peptide) [4]: 81.99%
decrease of stability after intestinal digestion [4]: 15.61%
remaining at 2 min [4]: 99.5%
DPP-IV inhibitory rate after intestinal digestion (DPP-IV [5]): 39.37 % ± 0.90
DPP-IV inhibition rate in Caco-2 cells (DPP-IV [6]): 65.98 % ± 2.87
IC50 (DPP-IV [2]): 180 ± 18.9 µM
Substance: LPYPY [LPYPY]
cytotoxicity to Caco-2 cells (Caco-2 cells): Neither GL-6 nor LY-5 exhibited significant cytotoxicity

Oral-gastric digestion (stability of peptide) [4]: 96.37%
Oral-gastric-intestinal digestion (stability of peptide) [4]: 69.48%
decrease of stability after intestinal digestion [4]: 26.89%
remaining at 2 min [4]: 99.6%
DPP-IV inhibitory rate after intestinal digestion (DPP-IV [5]): 31.90 % ± 1.80
DPP-IV inhibition rate in Caco-2 cells (DPP-IV [6]): 46.53 % ± 3.48
IC50 (DPP-IV [2]): 131 ± 10.4 µM
Substance: GPFPLL [GPFPLL]
cytotoxicity to Caco-2 cells (Caco-2 cells): Neither GL-6 nor LY-5 exhibited significant cytotoxicity

Substance: LPFYPN
mode of inhibition of DPP-IV (DPP-IV [1]; coix seed protein peptide, ref Zhang et al., 2023): competitive inhibition

Substance: CDF
IC50 [7]: 192 µM

Substance: EACF
IC50 [7]: 41.1 µM

Substance: LLSPP
stability after intestinal digestion [3]: 80%
